Measurements as given in patent publication US20260092061A1, “COMPOUNDS FOR TARGETED PROTEIN DEGRADATION” (Amphista Therapeutics Limited, priority 2022, published 2026).

Assays:
Type in all cases: cell-based
BRD4 [1] = target: T1, BRD4 (Homo sapiens, UniProt O60885); assay: BRD4 degradation, HiBiT-BRD4 HEK293 CRISPR CPM cells, NanoGlo Lytic Endpoint assay (Assay Protocol 1); details: for Dmax: HEK293, Table 5; for DC50: Table 5
T1 construct: HiBiT-BRD4 HEK293 CRISPR CPM (Promega CS302312); host or cells: HEK293, CRISPR-edited (HiBiT at the BRD4 locus)
Description: (§1) HiBiT-BRD9 KI HEK293 (LgBiT) Cells (Promega CS3023412) were seeded at 8000 cells per well (38 μL) in sterile white bottom 384 well plates (Invitrogen 164610 or Greiner 781080) and incubated overnight at 37° C. with 5% CO2. The next day, compounds were prepared at 1000× final concentration in DMSO and diluted 1:100 in media (DMEM PAN Biotech P04-03550+10% FBS ATCC 302025). 4 μL compound was added to each well of the cell plate and incubated for 6 h at 37° C. with 5% CO2 BRD9 expression was quantified using the NanoGlo Lytic Endpoint assay (Promega N3050). The lytic buffer was equilibrated to room temperature for 10-15 min before lytic reagent was prepared by adding substrate (1:50) and LgBit protein (1:100) in lytic buffer. 40 μL lytic reagent mix was added to each well of the cel plate and plates were centrifuged briefly at ˜50g. Plates were incubated with shaking (350 RPM) for 12-24 min before reading using the LUM plus module of a BMG Pherastar FSX. Data was analysed using Dotmatics software and % BRD9 remaining was calculated by normalisation to average data from high and low control wells (DMSO treated cels and no cells respectively).
(§2) […] was determined in line with the procedure as outlined above for BRD9, HiBiT-BRD4 HEK293 CRISPR CPM (Promega CS302312) were seeded at 8000 CPW (36 uL) in sterile white bottom 384 well plates (Invitrogen 164610 or Greiner 781080) and incubated overnight at 37° C. with 5% CO2.

BRD7 = target: T2, BRD7 (Homo sapiens, UniProt Q9NPI1); assay: BRD7 degradation, HiBiT-BRD7 KI HEK293 (LgBiT) cells, NanoGlo Lytic Endpoint assay (Assay Protocol 1); details: for Dmax / Dmax at 1 µM: HEK293; for Dmax / DC50: Table 5, assay protocol 1; for Dmax at 1 µM: Table 3, assay 1, 1 μM compound at 5 h of treatment
T2 construct: HiBiT-BRD7 KI HEK293 (LgBiT) Cells (Promega CS3023410); host or cells: HEK293 (LgBiT), HiBiT knock-in at the BRD7 locus
T2 sequence (Q9NPI1 1-651): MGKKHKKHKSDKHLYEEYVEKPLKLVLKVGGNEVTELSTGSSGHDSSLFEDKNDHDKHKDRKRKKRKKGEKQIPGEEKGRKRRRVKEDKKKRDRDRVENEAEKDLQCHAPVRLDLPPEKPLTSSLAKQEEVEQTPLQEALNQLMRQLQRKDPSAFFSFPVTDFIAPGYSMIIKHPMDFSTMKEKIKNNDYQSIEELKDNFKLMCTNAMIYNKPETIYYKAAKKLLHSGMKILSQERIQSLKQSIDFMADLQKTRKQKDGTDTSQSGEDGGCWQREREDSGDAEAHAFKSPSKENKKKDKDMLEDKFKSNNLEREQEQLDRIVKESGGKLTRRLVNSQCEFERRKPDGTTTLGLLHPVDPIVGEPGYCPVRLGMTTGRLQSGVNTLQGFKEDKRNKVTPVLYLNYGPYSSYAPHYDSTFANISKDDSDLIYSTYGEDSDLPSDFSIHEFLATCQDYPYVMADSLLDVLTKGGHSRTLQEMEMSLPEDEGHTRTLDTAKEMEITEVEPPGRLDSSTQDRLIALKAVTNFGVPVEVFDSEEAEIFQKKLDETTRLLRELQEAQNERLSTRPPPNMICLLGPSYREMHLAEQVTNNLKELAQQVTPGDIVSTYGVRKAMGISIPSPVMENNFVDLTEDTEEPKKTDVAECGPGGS
Description: as §1, with “4 μL compound was added to each well of the cell plate and incubated for 6 h at 37° C. with 5% CO2 BRD9 expression was quantified using the NanoGlo Lytic Endpoint assay (Promega N3050).” left out
as §2, with “with the exception that HiBiT-BRD7 KI” for “HiBiT-BRD4”, “(LgBiT) Cells” for “CRISPR CPM”, “CS3023410)” for “CS302312)”, “cells per well (CPW)” for “CPW”

BRD4 [2] = target: T1, BRD4; assay: BRD4 degradation, HiBiT-BRD4 HEK293 CRISPR CPM cells, NanoGlo Lytic Endpoint assay (Assay Protocol 1); details: HEK293; Table 3; assay 1; 1 μM compound at 5 h of treatment
BRD9 = target: T3, BRD9 (Homo sapiens, UniProt Q9H8M2); assay: BRD9 degradation, HiBiT-BRD9 KI HEK293 (LgBiT) cells, NanoGlo Lytic Endpoint assay (Assay Protocol 1); details: Table 3; assay 1; 5 h of treatment
T3 sequence (Q9H8M2 1-597): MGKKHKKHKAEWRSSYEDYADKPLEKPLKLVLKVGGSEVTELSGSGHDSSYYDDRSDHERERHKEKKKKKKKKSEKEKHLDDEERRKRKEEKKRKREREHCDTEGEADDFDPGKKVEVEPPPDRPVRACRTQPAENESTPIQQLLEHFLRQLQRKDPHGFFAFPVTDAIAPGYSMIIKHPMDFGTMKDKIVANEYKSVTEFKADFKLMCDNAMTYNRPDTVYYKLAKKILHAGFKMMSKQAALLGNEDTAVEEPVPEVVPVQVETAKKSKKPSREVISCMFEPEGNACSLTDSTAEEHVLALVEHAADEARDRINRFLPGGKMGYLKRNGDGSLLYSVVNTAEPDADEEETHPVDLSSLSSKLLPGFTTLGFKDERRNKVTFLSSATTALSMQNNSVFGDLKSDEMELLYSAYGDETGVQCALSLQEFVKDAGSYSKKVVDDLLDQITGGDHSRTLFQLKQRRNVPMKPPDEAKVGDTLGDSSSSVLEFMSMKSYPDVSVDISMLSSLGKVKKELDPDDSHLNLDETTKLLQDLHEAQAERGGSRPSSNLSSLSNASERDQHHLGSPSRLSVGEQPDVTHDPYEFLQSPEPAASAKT

Compound | Dmax (BRD4 [1]) [%] | DC50 (BRD4 [1]) [nM] | Dmax (BRD7) [%] | DC50 (BRD7) [nM] | Dmax (BRD4 [2]) [%] | DC50 (BRD9) [nM] | Dmax at 1 µM (BRD7) [%]
COc1cc(-c2cn(C)c(=O)c(C)c2C)cc(OC)c1CN(C)C(=O)/C(C#N)=C/C(C)(C)C [BRD9ac, (E/Z)-2-cyano-N-(2,6-dimethoxy-4-(1,4,5-trimethyl-6-oxo-1,6-dihydropyridin-3-yl)benzyl)-N,4,4-trimethylpent-2-enamide] | 25 to 40 | > 1000 | 70 to 75 | 25 to 1000 | – | – | –
COc1cc(-c2cn(C)c(=O)c(C)c2C)cc(OC)c1CN1CCCN(C(=O)/C(C#N)=C/C(C)(C)C)CC1 [BRD9c, (E/Z)-2-(4-(2,6-dimethoxy-4-(1,4,5-trimethyl-6-oxo-1,6-dihydropyridin-3-yl)benzyl)-1,4-diazepane-1-carbonyl)-4,4-dimethylpent-2-enenitrile] | > 75 | 25 to 1000 | < 25 | > 1000 | – | – | –
COc1cc(-c2cn(C)c(=O)c(C)c2C)cc(OC)c1CN1CCN(C(=O)/C(C#N)=C/c2cccc(Br)n2)CC1 [BRD9h, (E/Z)-3-(6-bromopyridin-2-yl)-2-(4-(2,6-dimethoxy-4-(1,4,5-trimethyl-6-oxo-1,6-dihydropyridin-3-yl)benzyl)piperazine-1-carbonyl)acrylonitrile] | 40 to 70 | 25 to 1000 | 25 to 40 | > 1000 | – | – | –
COc1cc(-c2cn(C)c(=O)c3cnccc23)cc(OC)c1CN1CCN(Cc2cccc3c2CCN(C(=O)/C(C#N)=C\c2ncc(C)s2)C3C)CC1 (mixture of isomers) [Compound A10, (E/Z)-2-(5-((4-(2,6-dimethoxy-4-(2-methyl-1-oxo-1,2-dihydro-2,7-naphthyridin-4-yl)benzyl)piperazin-1-yl)methyl)-1-methyl-1,2,3,4-tetrahydroisoquinoline-2-carbonyl)-3-(5-methylthiazol-2-yl)acrylonitrile] | – | – | – | – | < 25 | < 1.25 | 25 to 40
COc1cc(-c2cn(C)c(=O)c(C)c2C)cc(OC)c1CN1C2CC1CN(C(=O)/C(C#N)=C/c1cccc(Br)n1)C2 (mixture of isomers) [BRD9o, (E/Z)-3-(6-bromopyridin-2-yl)-2-(6-(2,6-dimethoxy-4-(1,4,5-trimethyl-6-oxo-1,6-dihydropyridin-3-yl)benzyl)-3,6-diazabicyclo[3.1.1]heptane-3-carbonyl)acrylonitrile] | 25 to 40 | > 1000 | 25 to 40 | > 1000 | – | – | –
COc1cc(-c2cn(C)c(=O)c3cnccc23)cc(OC)c1CN(C)Cc1cccc2c1CCN(C(=O)/C(C#N)=C/c1cccc(Br)n1)C2C (mixture of isomers) [Compound A50] | – | – | – | – | < 25 | < 1.25 | 25 to 40
COc1cc(-c2cn(C)c(=O)c(C)c2C)cc(OC)c1CN1CCN(Cc2cccc3c2CCN(C(=O)/C(C#N)=C/c2cccc(Br)n2)C3C)CC1 (mixture of isomers) [Compound A16, (E/Z)-3-(6-bromopyridin-2-yl)-2-(5-((4-(2,6-dimethoxy-4-(1,4,5-trimethyl-6-oxo-1,6-dihydropyridin-3-yl)benzyl)piperazin-1-yl)methyl)-1-methyl-1,2,3,4-tetrahydroisoquinoline-2-carbonyl) acrylonitrile] | – | – | – | – | < 25 | 1.25 to 10 | 25 to 40
COc1cc(-c2cn(C)c(=O)c(C)c2C)cc(OC)c1CN1CCN(C(=O)/C(C#N)=C/C(C)(C)C)C2(CC2)C1 [BRD9e, (E/Z)-2-(7-(2,6-dimethoxy-4-(1,4,5-trimethyl-6-oxo-1,6-dihydropyridin-3-yl)benzyl)-4,7-diazaspiro[2,5]octane-4-carbonyl)-4,4-dimethylpent-2-enenitrile] | > 75 | 25 to 1000 | < 25 | > 1000 | – | – | –
COc1cc(-c2cn(C)c(=O)c(C)c2C)cc(OC)c1CN1CC2CC1CN2C(=O)/C(C#N)=C/C(C)(C)C (mixture of isomers) [BRD9b] | > 75 | 25 to 1000 | < 25 | > 1000 | – | – | –
COc1cc(-c2cn(C)c(=O)c(C)c2C)cc(OC)c1CN1CC2CC1CN2C(=O)/C(C#N)=C/c1nccs1 (mixture of isomers) [BRD9i, (E/Z)-2-(5-(2,6-dimethoxy-4-(1,4,5-trimethyl-6-oxo-1,6-dihydropyridin-3-yl)benzyl)-2,5-diazabicyclo[2.2.1]heptane-2-carbonyl)-3-(thiazol-2-yl)acrylonitrile] | 40 to 70 | > 1000 | 25 to 40 | > 1000 | – | – | –
COc1cc(-c2cn(C)c(=O)c(C)c2C)cc(OC)c1CN1CCN(C(=O)/C(C#N)=C/C(C)(C)C)CC1 [BRD9a, (E/Z)-2-(4-(2,6-dimethoxy-4-(1,4,5-trimethyl-6-oxo-1,6-dihydropyridin-3-yl)benzyl)piperazine-1-carbonyl)-4,4-dimethylpent-2-enenitrile] | > 75 | 25 to 1000 | < 25 | > 1000 | – | – | –
COc1cc(-c2cn(C)c(=O)c(C)c2C)cc(OC)c1CN(C)C1CCN(C(=O)/C(C#N)=C/C(C)(C)C)CC1 [BRD9d, (E/Z)-2-(4-((2,6-dimethoxy-4-(1,4,5-trimethyl-6-oxo-1,6-dihydropyridin-3-yl)benzyl)(methyl)amino)piperidine-1-carbonyl)-4,4-dimethylpent-2-enenitrile] | < 25 | > 1000 | < 25 | > 1000 | – | – | –
